Results on 13 molecules are retold here after PubChem BioAssay (NCI).

Molecules are shown by their SMILES.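 Values below derive from 48-hour exposures of cells grown in 96-well plates, with endpoints linearly interpolated between the two concentrations bracketing the appropriate inhibition level. The concentration for full growth arrest is given as TGI.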 Where only a bound is given, the exact number is not on record here.

Among the test systems are SN12C renal; NCI-H522 lung; HOP-62 NSCLC; A498 renal; MALME-3M melanoma; SR leukemia; NCI-H23 lung; SNB-75 CNS; LOX IMVI melanoma; PC-3 prostate; HS 578T breast; UO-31 renal; CCRF-CEM leukemia; M14 melanoma; MOLT-4 leukemia; SK-MEL-5 melanoma; SK-OV-3 ovarian; EKVX NSCLC.
Holding throughout (assay): inhibition of tumour cell growth, NCI panel, 48 h

Turning to `O=C1CC(CC(O)[C@@H]2CCCC[C@@H]2O)CC(=O)N1c1ccccc1` (stereo not given in full), the TGI with SN12C renal, in the experiment with NCI-H522 lung, in the experiment on HOP-62 NSCLC, with A498 renal, with MALME-3M melanoma and in the experiment on SR leukemia was > 100 µM each time. In addition, the TGI in the experiment with NCI-H23 lung, in the experiment with SNB-75 CNS, in the experiment with LOX IMVI melanoma, in the experiment with PC-3 prostate, in the experiment with HS 578T breast and with UO-31 renal was > 100 µM each time. The TGI in the experiment on CCRF-CEM leukemia, in the experiment on M14 melanoma, in the experiment on MOLT-4 leukemia and in the experiment with SK-MEL-5 melanoma was > 100 µM throughout.
On to `COC(=O)c1cc2c(o1)Sc1ccccc1NC2=O`, for which the TGI with SN12C renal, in the experiment with NCI-H522 lung, in the experiment with HOP-62 NSCLC, in the experiment with A498 renal, in the experiment on SR leukemia and in the experiment with NCI-H23 lung was > 100 µM each time. In addition, the TGI in the experiment on SNB-75 CNS is 66.6 µM; in the experiment on LOX IMVI melanoma, > 100 µM; in the experiment on SK-OV-3 ovarian, > 100 µM; in the experiment on PC-3 prostate, > 100 µM; in the experiment with HS 578T breast it was 63.8 µM; in the experiment with CCRF-CEM leukemia it was > 100 µM. The TGI with M14 melanoma, in the experiment on MOLT-4 leukemia and in the experiment on SK-MEL-5 melanoma was > 100 µM in each case.
As to `COc1cc(S(=O)(=O)Nc2nc(-c3ccc(N4C(=O)CSC4c4cccs4)cc3)cs2)ccc1Cl` (stereo not given), the TGI in the experiment on SN12C renal is 77.8 µM; in the experiment with NCI-H522 lung, 83.2 µM; in the experiment on HOP-62 NSCLC, > 100 µM; with A498 renal, > 100 µM; in the experiment on MALME-3M melanoma it was > 100 µM; with SR leukemia, 96.8 µM. Besides, the TGI was 89 µM in the experiment on NCI-H23 lung; > 100 µM in the experiment with SNB-75 CNS; 48.2 µM with LOX IMVI melanoma; > 100 µM with SK-OV-3 ovarian; > 100 µM in the experiment with PC-3 prostate; > 100 µM in the experiment on HS 578T breast. Besides, the TGI was 73.4 µM in the experiment on UO-31 renal; > 100 µM in the experiment with CCRF-CEM leukemia; > 100 µM in the experiment with M14 melanoma; > 100 µM in the experiment with MOLT-4 leukemia; > 100 µM in the experiment with SK-MEL-5 melanoma.
On to `O=C1CC(=O)NC(=NN2C(=O)/C(=C/C(=O)c3ccco3)N=C2c2ccccc2)N1`, for which the TGI in the experiment with SN12C renal is > 100 µM; with NCI-H522 lung it was 79.8 µM; in the experiment with HOP-62 NSCLC, > 100 µM; with A498 renal it was > 100 µM; in the experiment with MALME-3M melanoma, > 100 µM; in the experiment on SR leukemia, 41.3 µM. In addition, the TGI in the experiment with NCI-H23 lung, with SNB-75 CNS, with SK-OV-3 ovarian, in the experiment with PC-3 prostate, in the experiment on HS 578T breast and with UO-31 renal was > 100 µM in each case. Moreover, the TGI with CCRF-CEM leukemia is 51.7 µM; in the experiment on M14 melanoma, > 100 µM; in the experiment on MOLT-4 leukemia it was 60.7 µM.
Consider `O=C1CC(NC(=O)C(F)(F)F)c2c1csc2Br` (stereo not given), for which the TGI with SN12C renal, with NCI-H522 lung, in the experiment with HOP-62 NSCLC, in the experiment with A498 renal, in the experiment on MALME-3M melanoma and in the experiment on SR leukemia was > 100 µM each time. Besides, the TGI in the experiment with NCI-H23 lung, in the experiment on LOX IMVI melanoma, with SK-OV-3 ovarian, with PC-3 prostate, in the experiment with HS 578T breast and in the experiment on UO-31 renal was > 100 µM in each case. In addition, the TGI with CCRF-CEM leukemia is > 100 µM; in the experiment with M14 melanoma, > 100 µM; in the experiment with MOLT-4 leukemia, > 100 µM; in the experiment on EKVX NSCLC it was 38.2 µM; in the experiment on SK-MEL-5 melanoma, > 100 µM.
In the case of `CC1=NN(C(=O)CC(=O)Nc2ccc(C)cc2)C(=O)C1N=Nc1ccc(C(=O)O)cc1` (stereo not given), the TGI with SN12C renal, in the experiment with NCI-H522 lung, in the experiment on HOP-62 NSCLC, with A498 renal, in the experiment with MALME-3M melanoma and in the experiment with SR leukemia was > 100 µM throughout. The TGI in the experiment on NCI-H23 lung, in the experiment on SNB-75 CNS, in the experiment with LOX IMVI melanoma, in the experiment on PC-3 prostate, in the experiment with HS 578T breast and in the experiment on UO-31 renal was > 100 µM throughout. The TGI in the experiment with CCRF-CEM leukemia, in the experiment with M14 melanoma, in the experiment on EKVX NSCLC and in the experiment with SK-MEL-5 melanoma was > 100 µM each time.
Regarding `Cc1c(C)c2c(c(N)c1C#N)C(=O)N(CCc1ccccc1)C2=O`, the TGI in the experiment with SN12C renal, in the experiment with NCI-H522 lung, in the experiment on A498 renal, with MALME-3M melanoma, with SR leukemia and in the experiment with SNB-75 CNS was > 100 µM each time. The TGI in the experiment on LOX IMVI melanoma, with PC-3 prostate, in the experiment with HS 578T breast, with UO-31 renal, with CCRF-CEM leukemia and in the experiment on M14 melanoma was > 100 µM in each case. Moreover, the TGI in the experiment with MOLT-4 leukemia, in the experiment with EKVX NSCLC and in the experiment with SK-MEL-5 melanoma was > 100 µM in each case.
For `COc1nc(C)nc2sc3c(c12)CCCC3`, the TGI in the experiment on SN12C renal, in the experiment on NCI-H522 lung, in the experiment on HOP-62 NSCLC, in the experiment on A498 renal, with MALME-3M melanoma and in the experiment with SR leukemia was > 100 µM each time. Further, the TGI in the experiment with NCI-H23 lung, with SNB-75 CNS, with LOX IMVI melanoma, with PC-3 prostate, with HS 578T breast and in the experiment with UO-31 renal was > 100 µM in each case. Moreover, the TGI in the experiment on MOLT-4 leukemia, in the experiment on EKVX NSCLC and with SK-MEL-5 melanoma was > 100 µM throughout.
As to `COc1ccc2cc(Oc3ccc(Cl)cc3)c(=O)oc2c1`, the TGI with SN12C renal, in the experiment with NCI-H522 lung, with HOP-62 NSCLC, with A498 renal, in the experiment on MALME-3M melanoma and with SR leukemia was > 100 µM each time. Moreover, the TGI with NCI-H23 lung, with SNB-75 CNS, in the experiment with LOX IMVI melanoma, in the experiment with PC-3 prostate, in the experiment with HS 578T breast and in the experiment on UO-31 renal was > 100 µM throughout. For the same molecule, the TGI with CCRF-CEM leukemia, in the experiment on M14 melanoma, with MOLT-4 leukemia, with EKVX NSCLC and with SK-MEL-5 melanoma was > 100 µM each time.
Take `Cc1cc(C)nc(NS(=O)(=O)c2ccc(Nc3c4ccccc4nc4c(C(=O)NNCCO)cccc34)cc2)n1`: the TGI with SN12C renal, in the experiment on NCI-H522 lung, in the experiment on HOP-62 NSCLC, with A498 renal, in the experiment on MALME-3M melanoma and in the experiment on SR leukemia was > 100 µM in each case. Moreover, the TGI with NCI-H23 lung, in the experiment with LOX IMVI melanoma, in the experiment on SK-OV-3 ovarian, in the experiment with PC-3 prostate, in the experiment with HS 578T breast and in the experiment with UO-31 renal was > 100 µM throughout. Moreover, the TGI with CCRF-CEM leukemia, in the experiment on M14 melanoma, in the experiment on MOLT-4 leukemia, with EKVX NSCLC and in the experiment with SK-MEL-5 melanoma was > 100 µM throughout.
In the case of `CO[C@H]1c2cccc3cccc(c23)[C@@H]1n1[nH]c(=O)n(C(C)(C)C)c1=O`, the TGI in the experiment with SN12C renal, in the experiment on NCI-H522 lung, in the experiment on A498 renal, with MALME-3M melanoma, in the experiment on SR leukemia and in the experiment on NCI-H23 lung was > 100 µM in each case. Also, the TGI with SNB-75 CNS, in the experiment on LOX IMVI melanoma, with SK-OV-3 ovarian, with PC-3 prostate, in the experiment with HS 578T breast and in the experiment on UO-31 renal was > 100 µM throughout. Also, the TGI in the experiment on CCRF-CEM leukemia, in the experiment with M14 melanoma, in the experiment on MOLT-4 leukemia and in the experiment with EKVX NSCLC was > 100 µM in each case.
`Cc1oc2c(c1C)S(=O)(=O)C(C#N)=C(c1ccccc1)N2`: the TGI in the experiment with SN12C renal, in the experiment with NCI-H522 lung, with HOP-62 NSCLC, in the experiment on A498 renal, with MALME-3M melanoma and with SR leukemia was > 100 µM in each case. The TGI with NCI-H23 lung, in the experiment on SNB-75 CNS, with LOX IMVI melanoma, in the experiment with SK-OV-3 ovarian, in the experiment on PC-3 prostate and in the experiment on HS 578T breast was > 100 µM each time. For the same molecule, the TGI in the experiment with UO-31 renal, in the experiment with M14 melanoma, in the experiment with MOLT-4 leukemia, with EKVX NSCLC and in the experiment with SK-MEL-5 melanoma was > 100 µM each time.
For `CNc1c2cccc(C)c2nc2c(C(=O)NCCN(C)C)cccc12`, the TGI was determined as 0.719 µM in the experiment on SN12C renal; 0.109 µM in the experiment on NCI-H522 lung; 0.578 µM with HOP-62 NSCLC; 0.935 µM with A498 renal; 0.692 µM in the experiment with MALME-3M melanoma; 0.469 µM in the experiment with SR leukemia. Also, the TGI is 0.286 µM in the experiment on NCI-H23 lung; 0.592 µM in the experiment on SNB-75 CNS; 0.391 µM in the experiment with LOX IMVI melanoma; 1.94 µM in the experiment on SK-OV-3 ovarian; 0.88 µM in the experiment on PC-3 prostate; 0.497 µM in the experiment with HS 578T breast. The TGI with UO-31 renal amounted to 2.49 µM; with M14 melanoma, 0.887 µM; in the experiment with MOLT-4 leukemia, 0.306 µM; with EKVX NSCLC, 1.33 µM; in the experiment on SK-MEL-5 melanoma, 0.593 µM.
